Experimental data: PMC8213057, “Targeting ALK2: An Open Science Approach to Developing Therapeutics for the Treatment of Diffuse Intrinsic Pontine Glioma” (Journal of Medicinal Chemistry, 2020)
Values joined by “and” are separate entries in the source; they are usually repeats but may differ in a detail not shown here. Equal entries are not always repeated.

Columns and labels:
CDK16/cyclin Y (PCTAIRE) = CDK16/cyclin Y (PCTAIRE) (Homo sapiens, UniProt Q00536); settings: 1 μM; Run 1, Run 2
ALK = ALK (Homo sapiens, UniProt Q9UM73); assay: biochemical; settings: read-out: % enzyme activity, 1 μM; Run 1, Run 2
WNK3 = WNK3 (Homo sapiens, UniProt Q9BYP7); assay: biochemical; settings: read-out: % enzyme activity, 1 μM; Run 1, Run 2
HPK1/MAP4K1 = HPK1/MAP4K1 (Homo sapiens, UniProt Q92918); assay: biochemical; settings: read-out: % enzyme activity, 1 μM; Run 1, Run 2
Chain of HPK1/MAP4K1 (Q92918 whole entry): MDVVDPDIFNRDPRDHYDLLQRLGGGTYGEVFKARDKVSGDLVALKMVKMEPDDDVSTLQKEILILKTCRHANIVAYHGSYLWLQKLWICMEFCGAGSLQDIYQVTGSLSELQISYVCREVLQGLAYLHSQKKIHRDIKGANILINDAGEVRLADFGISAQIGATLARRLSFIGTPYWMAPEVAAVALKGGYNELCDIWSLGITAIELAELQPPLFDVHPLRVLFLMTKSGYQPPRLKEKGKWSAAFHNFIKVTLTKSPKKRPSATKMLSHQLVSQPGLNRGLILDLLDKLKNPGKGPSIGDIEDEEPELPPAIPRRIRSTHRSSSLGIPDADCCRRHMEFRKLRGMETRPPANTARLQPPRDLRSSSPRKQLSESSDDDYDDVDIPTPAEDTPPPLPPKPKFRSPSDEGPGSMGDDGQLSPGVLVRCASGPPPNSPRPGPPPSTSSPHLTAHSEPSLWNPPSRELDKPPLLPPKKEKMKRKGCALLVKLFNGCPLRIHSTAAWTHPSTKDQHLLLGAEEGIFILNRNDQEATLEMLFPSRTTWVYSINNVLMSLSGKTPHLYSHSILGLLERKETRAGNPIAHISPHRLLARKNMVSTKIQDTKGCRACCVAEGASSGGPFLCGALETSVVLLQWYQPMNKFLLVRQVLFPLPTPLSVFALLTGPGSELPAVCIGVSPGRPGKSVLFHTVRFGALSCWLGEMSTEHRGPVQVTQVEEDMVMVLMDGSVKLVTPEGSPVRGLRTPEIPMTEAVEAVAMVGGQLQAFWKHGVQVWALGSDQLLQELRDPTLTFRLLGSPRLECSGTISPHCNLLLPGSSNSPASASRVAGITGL

FLT3 = target: T1, FLT3 (Homo sapiens, UniProt P36888); assay: 375-member kinase panel; type: biochemical; settings: Run 1, Run 2; for % enzyme activity: 1 μM; for remaining activity at 1 µM: read-out: % enzyme activity, 1 μM
T1 construct: purchased Reaction Biology Corporation
T1 sequence (P36888 27-993): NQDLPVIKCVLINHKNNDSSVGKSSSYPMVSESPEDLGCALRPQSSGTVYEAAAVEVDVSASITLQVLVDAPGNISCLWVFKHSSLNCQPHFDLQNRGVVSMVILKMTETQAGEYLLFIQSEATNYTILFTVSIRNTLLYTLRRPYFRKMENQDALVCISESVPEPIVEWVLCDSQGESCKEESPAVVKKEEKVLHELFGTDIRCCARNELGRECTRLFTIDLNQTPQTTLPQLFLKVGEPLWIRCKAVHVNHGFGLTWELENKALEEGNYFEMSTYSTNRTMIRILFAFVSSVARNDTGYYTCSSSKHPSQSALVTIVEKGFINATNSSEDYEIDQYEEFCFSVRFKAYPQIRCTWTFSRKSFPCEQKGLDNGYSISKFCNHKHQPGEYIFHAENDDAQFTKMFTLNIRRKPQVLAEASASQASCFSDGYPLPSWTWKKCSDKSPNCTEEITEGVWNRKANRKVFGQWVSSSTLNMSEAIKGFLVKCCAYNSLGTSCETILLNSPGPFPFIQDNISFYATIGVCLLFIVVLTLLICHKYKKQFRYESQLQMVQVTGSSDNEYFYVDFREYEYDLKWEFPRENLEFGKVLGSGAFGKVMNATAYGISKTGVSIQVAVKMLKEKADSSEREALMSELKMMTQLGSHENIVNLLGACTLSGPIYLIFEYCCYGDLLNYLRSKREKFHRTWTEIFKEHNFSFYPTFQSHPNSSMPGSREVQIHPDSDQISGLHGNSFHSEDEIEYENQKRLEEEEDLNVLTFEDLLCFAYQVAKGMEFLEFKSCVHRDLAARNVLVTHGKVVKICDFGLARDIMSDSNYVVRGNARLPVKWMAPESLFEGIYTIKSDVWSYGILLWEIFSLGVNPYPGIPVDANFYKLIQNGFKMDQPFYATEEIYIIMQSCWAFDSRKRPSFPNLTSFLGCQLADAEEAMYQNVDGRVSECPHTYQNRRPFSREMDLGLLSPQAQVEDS

p70S6Kb/RPS6KB2 = p70S6Kb/RPS6KB2 (Homo sapiens, UniProt Q9UBS0); assay: biochemical; settings: read-out: % enzyme activity, 1 μM; Run 1, Run 2
Chain of p70S6Kb/RPS6KB2 (Q9UBS0 whole entry): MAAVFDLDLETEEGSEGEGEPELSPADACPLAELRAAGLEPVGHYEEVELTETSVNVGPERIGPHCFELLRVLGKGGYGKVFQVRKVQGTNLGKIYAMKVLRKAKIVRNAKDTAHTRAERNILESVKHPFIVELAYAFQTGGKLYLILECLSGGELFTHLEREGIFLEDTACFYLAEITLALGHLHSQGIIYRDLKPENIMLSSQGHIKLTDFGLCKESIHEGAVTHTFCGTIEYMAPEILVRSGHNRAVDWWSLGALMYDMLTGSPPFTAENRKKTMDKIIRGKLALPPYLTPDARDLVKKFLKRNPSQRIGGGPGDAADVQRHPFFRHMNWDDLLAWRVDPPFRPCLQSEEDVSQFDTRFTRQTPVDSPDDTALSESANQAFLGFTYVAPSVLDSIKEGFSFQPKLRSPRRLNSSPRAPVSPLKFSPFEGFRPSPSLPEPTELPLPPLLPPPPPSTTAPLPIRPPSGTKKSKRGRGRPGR

ZAP70 = target: T2, ZAP70 (Homo sapiens, UniProt P43403); assay: biochemical; settings: read-out: % enzyme activity, 1 μM; Run 1, Run 2
T2 sequence (P43403 1-619): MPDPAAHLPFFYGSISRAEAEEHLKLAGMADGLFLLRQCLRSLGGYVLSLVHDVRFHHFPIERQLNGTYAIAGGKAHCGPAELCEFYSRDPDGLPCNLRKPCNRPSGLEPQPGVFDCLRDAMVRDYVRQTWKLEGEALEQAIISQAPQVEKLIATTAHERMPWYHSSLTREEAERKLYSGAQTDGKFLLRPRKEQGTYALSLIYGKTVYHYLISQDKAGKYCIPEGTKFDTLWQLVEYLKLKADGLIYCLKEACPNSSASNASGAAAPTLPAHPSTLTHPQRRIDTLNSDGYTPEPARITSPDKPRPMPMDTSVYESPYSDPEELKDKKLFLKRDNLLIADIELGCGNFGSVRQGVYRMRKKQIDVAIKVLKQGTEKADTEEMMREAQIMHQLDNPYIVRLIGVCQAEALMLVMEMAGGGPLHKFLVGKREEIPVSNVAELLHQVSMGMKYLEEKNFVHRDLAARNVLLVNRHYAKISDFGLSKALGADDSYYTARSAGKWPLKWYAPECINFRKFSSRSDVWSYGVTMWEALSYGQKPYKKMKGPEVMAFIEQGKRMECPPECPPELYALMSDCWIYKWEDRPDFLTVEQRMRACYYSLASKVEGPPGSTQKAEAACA

WNK1 = WNK1 (Homo sapiens, UniProt Q9H4A3); assay: biochemical; settings: read-out: % enzyme activity, 1 μM; Run 1, Run 2
Chain of WNK1 (Q9H4A3 whole entry, species assumed): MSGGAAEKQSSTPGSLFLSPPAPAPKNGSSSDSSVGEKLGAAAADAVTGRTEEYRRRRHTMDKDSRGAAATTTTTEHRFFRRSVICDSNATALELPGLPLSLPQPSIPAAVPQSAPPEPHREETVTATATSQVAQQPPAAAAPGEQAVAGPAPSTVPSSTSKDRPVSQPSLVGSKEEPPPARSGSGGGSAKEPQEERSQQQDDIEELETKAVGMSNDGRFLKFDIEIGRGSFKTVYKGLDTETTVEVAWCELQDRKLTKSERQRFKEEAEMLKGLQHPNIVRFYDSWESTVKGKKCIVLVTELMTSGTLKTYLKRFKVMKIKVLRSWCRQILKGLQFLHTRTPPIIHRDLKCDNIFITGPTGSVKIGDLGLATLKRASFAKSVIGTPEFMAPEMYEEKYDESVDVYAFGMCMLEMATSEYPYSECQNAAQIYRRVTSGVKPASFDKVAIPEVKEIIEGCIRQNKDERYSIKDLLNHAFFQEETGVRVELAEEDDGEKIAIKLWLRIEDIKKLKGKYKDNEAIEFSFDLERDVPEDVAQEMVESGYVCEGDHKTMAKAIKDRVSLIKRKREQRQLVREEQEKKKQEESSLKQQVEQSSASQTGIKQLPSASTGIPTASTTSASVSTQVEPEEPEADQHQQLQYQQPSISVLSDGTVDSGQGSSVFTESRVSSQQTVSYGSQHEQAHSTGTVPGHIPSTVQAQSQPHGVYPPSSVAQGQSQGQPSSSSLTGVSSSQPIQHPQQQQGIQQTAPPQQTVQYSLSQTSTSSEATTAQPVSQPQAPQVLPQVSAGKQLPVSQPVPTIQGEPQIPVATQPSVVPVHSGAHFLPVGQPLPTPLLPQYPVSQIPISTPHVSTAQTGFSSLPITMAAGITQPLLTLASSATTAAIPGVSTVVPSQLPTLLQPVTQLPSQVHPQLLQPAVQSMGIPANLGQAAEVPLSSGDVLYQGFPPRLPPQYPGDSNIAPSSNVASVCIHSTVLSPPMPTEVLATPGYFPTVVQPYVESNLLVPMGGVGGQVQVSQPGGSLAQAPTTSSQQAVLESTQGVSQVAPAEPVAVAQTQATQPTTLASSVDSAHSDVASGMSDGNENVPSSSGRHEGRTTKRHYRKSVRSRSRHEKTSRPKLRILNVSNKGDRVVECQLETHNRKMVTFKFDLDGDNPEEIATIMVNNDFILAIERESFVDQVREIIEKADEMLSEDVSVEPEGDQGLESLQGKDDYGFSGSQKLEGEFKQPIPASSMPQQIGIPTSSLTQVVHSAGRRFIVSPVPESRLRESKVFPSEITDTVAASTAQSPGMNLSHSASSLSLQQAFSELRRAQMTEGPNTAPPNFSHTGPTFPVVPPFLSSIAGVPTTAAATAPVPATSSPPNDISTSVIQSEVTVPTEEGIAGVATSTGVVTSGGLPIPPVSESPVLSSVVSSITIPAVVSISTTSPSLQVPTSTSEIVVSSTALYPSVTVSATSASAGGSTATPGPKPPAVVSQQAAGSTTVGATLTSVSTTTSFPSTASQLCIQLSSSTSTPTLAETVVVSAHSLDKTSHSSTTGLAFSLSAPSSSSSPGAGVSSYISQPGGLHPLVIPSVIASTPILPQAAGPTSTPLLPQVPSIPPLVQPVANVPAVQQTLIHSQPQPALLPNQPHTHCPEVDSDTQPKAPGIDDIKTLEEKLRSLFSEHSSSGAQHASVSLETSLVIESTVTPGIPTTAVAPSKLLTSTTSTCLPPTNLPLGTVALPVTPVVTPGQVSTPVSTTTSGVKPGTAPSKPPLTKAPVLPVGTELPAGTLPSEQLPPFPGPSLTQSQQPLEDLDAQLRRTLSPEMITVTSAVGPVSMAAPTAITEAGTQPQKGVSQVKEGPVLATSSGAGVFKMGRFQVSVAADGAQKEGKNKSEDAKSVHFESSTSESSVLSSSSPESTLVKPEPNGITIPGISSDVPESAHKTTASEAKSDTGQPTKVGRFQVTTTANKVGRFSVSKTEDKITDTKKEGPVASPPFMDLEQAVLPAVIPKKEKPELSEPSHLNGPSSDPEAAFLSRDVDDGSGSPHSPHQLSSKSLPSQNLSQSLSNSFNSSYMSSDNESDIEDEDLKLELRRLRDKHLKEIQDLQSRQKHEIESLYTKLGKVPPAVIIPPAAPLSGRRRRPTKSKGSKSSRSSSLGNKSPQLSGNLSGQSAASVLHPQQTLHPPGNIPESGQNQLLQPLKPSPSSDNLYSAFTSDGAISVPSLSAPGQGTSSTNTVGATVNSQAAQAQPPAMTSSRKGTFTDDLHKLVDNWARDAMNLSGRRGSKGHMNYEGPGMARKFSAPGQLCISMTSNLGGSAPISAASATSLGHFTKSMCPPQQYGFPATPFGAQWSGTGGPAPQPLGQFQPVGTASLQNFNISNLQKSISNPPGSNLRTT

Chain of CDK16/cyclin Y (PCTAIRE) (Q00536 whole entry): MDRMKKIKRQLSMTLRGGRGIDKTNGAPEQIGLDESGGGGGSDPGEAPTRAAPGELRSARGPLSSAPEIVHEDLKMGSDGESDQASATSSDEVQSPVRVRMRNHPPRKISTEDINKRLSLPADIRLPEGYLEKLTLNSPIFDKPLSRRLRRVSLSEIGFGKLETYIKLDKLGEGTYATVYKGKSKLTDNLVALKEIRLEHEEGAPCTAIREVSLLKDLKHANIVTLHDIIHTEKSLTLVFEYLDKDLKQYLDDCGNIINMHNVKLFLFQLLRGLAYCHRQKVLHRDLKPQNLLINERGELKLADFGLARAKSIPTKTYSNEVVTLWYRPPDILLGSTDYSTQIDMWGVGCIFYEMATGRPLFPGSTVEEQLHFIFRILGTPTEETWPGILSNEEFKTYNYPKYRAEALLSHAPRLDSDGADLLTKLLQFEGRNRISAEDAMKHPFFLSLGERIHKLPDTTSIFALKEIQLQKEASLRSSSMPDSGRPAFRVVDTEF
Chain of CDK16/cyclin Y (PCTAIRE) (Q8ND76 whole entry partner): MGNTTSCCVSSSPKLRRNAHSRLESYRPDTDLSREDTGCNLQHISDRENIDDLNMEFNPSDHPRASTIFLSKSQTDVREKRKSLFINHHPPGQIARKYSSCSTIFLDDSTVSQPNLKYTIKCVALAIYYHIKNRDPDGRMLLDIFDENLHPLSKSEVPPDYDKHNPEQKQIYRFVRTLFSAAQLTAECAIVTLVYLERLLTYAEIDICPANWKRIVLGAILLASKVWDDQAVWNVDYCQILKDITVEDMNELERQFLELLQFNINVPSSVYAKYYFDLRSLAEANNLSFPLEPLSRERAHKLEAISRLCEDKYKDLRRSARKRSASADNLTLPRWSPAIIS

Structure (SMILES) | % enzyme activity (CDK16/cyclin Y (PCTAIRE)) | remaining activity at 1 µM (ALK) | % enzyme activity at 1 μM (DYRK1B) | remaining activity at 1 µM (WNK3) | remaining activity at 1 µM (HPK1/MAP4K1) | % enzyme activity (FLT3) | remaining activity at 1 µM (FLT3) | remaining activity at 1 µM (p70S6Kb/RPS6KB2) | remaining activity at 1 µM (ZAP70) | remaining activity at 1 µM (WNK1)
COc1cc(-c2cncc(-c3ccc(N4C[C@@H](C)N(C)[C@@H](C)C4)cc3)c2C)cc(F)c1C(N)=O [Compound 26c, 2-Fluoro-6-methoxy-4-(4-methyl-5-(4-((3R,5S)-3,4,5-trimethylpiperazin-1-yl)phenyl)pyridin-3-yl)benzamide] | 92.26% | 101% | 59.2% and 58.5% | 93.8% | 74.7% | 81.48% | 84.3% | 102% | 98.7% | 104%
COc1cc(-c2cncc(-c3ccc(N4CCN(C)CC4)cc3)c2C)cc(F)c1C(N)=O [Compound 26a, 2-Fluoro-6-methoxy-4-(4-methyl-5-(4-(4-methylpiperazin-1-yl)phenyl)pyridin-3-yl)benzamide] | 93.35% | 99.9% | 40.6% and 39.8% | 89.6% | 58.7% | 76.15% | 77.1% | 97.3% | 96.2% | 108%
